Data as given in patent EP0565377B1, “Therapeutic agents for use in the treatment of Parkinson's Disease” (Kyowa Hakko Kogyo Co., Ltd., priority 1992, dated 1993).

Each molecule was assayed on Haloperidol-Induced Catalepsy (assay: Effect on haloperidol-induced catalepsy). Settings: Mus musculus, po, 1 h; Table 4-1; test compound 10 mg/kg orally; rate of decrease in total score based on control group; read-out: Remission Rate (%).
Type: in vivo, male ddY mice
Experimental: The experiment was performed by using several groups of 5-weeks-old male ddY mice (weighing 22 to 24 g, Japan SLC), each group consisting of 5 mice. Haloperidol (Janssen Pharmaceutica) suspended in 0.3% CMC was intraperitoneally administered to each mouse at a dose of 1.0 mg/kg. Test compounds were suspended in 0.3% CMC or in injectable distilled water (Otsuka Pharmaceutical Co., Ltd.) containing Tween 80. L-DOPA (Kyowa Hakko Kogyo Co., Ltd.) and benserazide hydrochloride (Kyowa Hakko Kogyo Co., Ltd.) were suspended in 0.3% CMC. One hour after the haloperidol administration, the test compound suspensions and the control suspension [0.3% CMC or injectable distilled water (Otsuka Pharmaceutical Co., Ltd.) containing Tween 80] containing no test compound were orally administered to separate groups of the mice (0.1 ml per 10 g of body weight). One hour after the administration of the test compound, the forelimbs of each mouse and subsequently the hindlimbs of the same mouse were placed on a 4.5 cm-high, 1.0 cm-wide bar and catalepsy was estimated. All of the test compounds were orally administered at a dose of 10 mg/kg, and L-DOPA (100 mg/kg) and benserazide (25 mg/kg) were intraperitoneally administered together as a control experiment. The catalepsy score and the standard of judgment are shown below.
The effect of the compounds was evaluated by the total of the catalepsy scores of five mice in each group (25 points at the full). The groups wherein the total score was not more than 20 points were estimated to be effective. The number of the animals showing remission against catalepsy is the number of the mice for which the catalepsy score was not more than 4 points.

Row | Structure (SMILES) | inhibition in vivo at 10 mg/kg
1 | CCCn1c(=O)c2[nH]c(/C=C/c3ccc4c(c3)OCCO4)nc2n(CCC)c1=O [Compound 16, (E)-8-[2-(1,4-benzodioxan-6-yl)vinyl]-1,3-dipropylxanthine] | 20%

Same assay, conditions: Table 4-1; test compound 10 mg/kg orally; of 5 mice, catalepsy score not more than 4 points

Row | Structure (SMILES) | Number of the Animals Showing Remission
2 | CCCn1c(=O)c2[nH]c(/C=C/c3ccc4c(c3)OCCO4)nc2n(CCC)c1=O [Compound 16, (E)-8-[2-(1,4-benzodioxan-6-yl)vinyl]-1,3-dipropylxanthine] | 4

Same assay, conditions: Table 4-1; test compound 10 mg/kg orally; total catalepsy score of 5 mice (25 points at the full); 0.3% CMC control 25

Row | Structure (SMILES) | Total Score
3 | CCCn1c(=O)c2[nH]c(/C=C/c3ccc4c(c3)OCCO4)nc2n(CCC)c1=O [Compound 16, (E)-8-[2-(1,4-benzodioxan-6-yl)vinyl]-1,3-dipropylxanthine] | 20 points

Each molecule was assayed on dd-strain male mice (assay: Acute toxicity test (minimum lethal dose, oral)). Settings: oral administration, mortality seven days after administration, three mice per group.
Type: in vivo
Experimental: Test compounds were orally administered to groups of dd-strain male mice weighing 20±1 g, each group consisting of three mice. Seven days after the administration, minimum lethal dose (MLD) of each compound was determined by observing the mortality.

Row | Structure (SMILES) | MLD
4 | CCCOc1ccc(/C=C/c2nc3c([nH]2)c(=O)n(CCC)c(=O)n3CCC)cc1 [Compound 49, (E)-8-(4-propoxystyryl)-1,3-dipropylxanthine] | > 100 mg/kg
5 | CCCn1c(=O)c2c(nc(/C=C/c3cc(Br)c(OC)c(OC)c3)n2C)n(CCC)c1=O [Compound 60, (E)-8-(3-bromo-4,5-dimethoxystyryl)-7-methyl-1,3-dipropylxanthine] | > 100 mg/kg
6 | CCCn1c(=O)c2[nH]c(/C=C/c3ccc(OC)c(C)c3C)nc2n(CCC)c1=O [Compound 12, (E)-8-(4-methoxy-2,3-dimethylstyryl)-1,3-dipropylxanthine] | > 300 mg/kg
7 | CCCCOc1ccc(/C=C/c2nc3c([nH]2)c(=O)n(CCC)c(=O)n3CCC)cc1 [Compound 51, (E)-8-(4-butoxystyryl)-1,3-dipropylxanthine] | > 100 mg/kg
8 | CCCn1c(=O)c2c(nc(/C=C/c3cccc([N+](=O)[O-])c3)n2C)n(CCC)c1=O [Compound 35, (E)-7-methyl-8-(3-nitrostyryl)-1,3-dipropylxanthine] | > 100 mg/kg
9 | CCCn1c(=O)c2[nH]c(/C=C/c3ccc4c(c3)OCCO4)nc2n(CCC)c1=O [Compound 16, (E)-8-[2-(1,4-benzodioxan-6-yl)vinyl]-1,3-dipropylxanthine] | > 300 mg/kg
10 | CCCn1c(=O)c2c(nc(/C=C/c3ccc4c(c3)OCCO4)n2C)n(CCC)c1=O [Compound 17, (E)-8-[2-(1,4-benzodioxan-6-yl)vinyl]-7-methyl-1,3-dipropylxanthine] | > 300 mg/kg
11 | CCCn1c(=O)c2[nH]c(/C=C/c3ccc(C)c(C)c3)nc2n(CCC)c1=O [Compound 30, (E)-8-(3,4-dimethylstyryl)-1,3-dipropylxanthine] | > 100 mg/kg
12 | CCCn1c(=O)c2[nH]c(/C=C/c3cc(OC)c(OCc4ccccc4)c(OC)c3)nc2n(CCC)c1=O [Compound 26, (E)-8-(4-benzyloxy-3,5-dimethoxystyryl)-1,3-dipropylxanthine] | > 100 mg/kg
13 | CCCn1c(=O)c2[nH]c(/C=C/c3ccc(OC)c(Br)c3)nc2n(CCC)c1=O [Compound 55, (E)-8-(3-bromo-4-methoxystyryl)-1,3-dipropylxanthine] | > 100 mg/kg
14 | CCCCOc1ccc(/C=C/c2nc3c(c(=O)n(CCC)c(=O)n3CCC)n2C)cc1 [Compound 52, (E)-8-(4-butoxystyryl)-7-methyl-1,3-dipropylxanthine] | > 100 mg/kg
15 | CCCn1c(=O)c2c(nc(/C=C/c3ccccc3F)n2C)n(CCC)c1=O [Compound 43, (E)-8-(2-fluorostyryl)-7-methyl-1,3-dipropylxanthine] | > 100 mg/kg
16 | CCCn1c(=O)c2c(nc(/C=C/c3cccc(OC)c3OC)n2C)n(CCC)c1=O [Compound 29, (E)-8-(2,3-dimethoxystyryl)-7-methyl-1,3-dipropylxanthine] | > 300 mg/kg
17 | CCCn1c(=O)c2[nH]c(/C=C/c3ccc(OC)c(C)c3OC)nc2n(CCC)c1=O [Compound 14, (E)-8-(2,4-dimethoxy-3-methylstyryl)-1,3-dipropylxanthine] | > 100 mg/kg
18 | CCCn1c(=O)c2c(nc(/C=C/c3cc(OC)cc(OC)c3)n2C)n(CCC)c1=O [Compound 33, (E)-8-(3,5-dimethoxystyryl)-7-methyl-1,3-dipropylxanthine] | > 100 mg/kg
19 | CCCn1c(=O)c2[nH]c(/C=C/c3cc(C)c(OC)cc3C)nc2n(CCC)c1=O [Compound 44, (E)-8-(4-methoxy-2,5-dimethylstyryl)-1,3-dipropylxanthine] | > 300 mg/kg
20 | CCCn1c(=O)c2c(nc(/C=C/c3cccc(F)c3)n2C)n(CCC)c1=O [Compound 37, (E)-8-(3-fluorostyryl)-7-methyl-1,3-dipropylxanthine] | > 100 mg/kg
21 | CCCn1c(=O)c2nc(/C=C/c3cccc(Cl)c3)[nH]c2n(CCC)c1=O [Compound 38, (E)-8-(3-chlorostyryl)-1,3-dipropylxanthine] | > 100 mg/kg
22 | CCCn1c(=O)c2c(nc(/C=C/c3cc(OC)c(OCc4ccccc4)c(OC)c3)n2C)n(CCC)c1=O [Compound 27, (E)-8-(4-benzyloxy-3,5-dimethoxystyryl)-7-methyl-1,3-dipropylxanthine] | > 100 mg/kg
23 | CCCn1c(=O)c2c(nc(/C=C/c3cccc(Cl)c3)n2C)n(CCC)c1=O [Compound 39, (E)-8-(3-chlorostyryl)-7-methyl-1,3-dipropylxanthine] | > 100 mg/kg

Row | Structure (SMILES) | MLD
24 | CCCn1c(=O)c2c(nc(/C=C\c3ccc(OC)c(OC)c3)n2C)n(CCC)c1=O [Compound 46, (Z)-8-(3,4-dimethoxystyryl)-7-methyl-1,3-dipropylxanthine] | > 300 mg/kg
25 | CCCn1c(=O)c2c(nc(/C=C/c3cc(C)c(OC)cc3C)n2C)n(CCC)c1=O [Compound 45, (E)-8-(4-methoxy-2,5-dimethylstyryl)-7-methyl-1,3-dipropylxanthine] | > 300 mg/kg
26 | CCCn1c(=O)c2[nH]c(/C=C/c3ccccc3F)nc2n(CCC)c1=O [Compound 42, (E)-8-(2-fluorostyryl)-1,3-dipropylxanthine] | > 100 mg/kg
27 | CCCn1c(=O)c2c(nc(/C=C/c3ccc(OC)c(OC)c3OC)n2C)n(CCC)c1=O [Compound 21, (E)-7-methyl-1,3-dipropyl-8-(2,3,4-trimethoxystyryl)xanthine] | > 300 mg/kg
28 | CCCn1c(=O)c2[nH]c(/C=C/c3cccc([N+](=O)[O-])c3)nc2n(CCC)c1=O [Compound 34, (E)-8-(3-nitrostyryl)-1,3-dipropylxanthine] | > 100 mg/kg
29 | CCCn1c(=O)c2[nH]c(/C=C/c3ccc(OCC)cc3)nc2n(CCC)c1=O [Compound 47, (E)-8-(4-ethoxystyryl)-1,3-dipropylxanthine] | > 100 mg/kg
30 | CCCn1c(=O)c2c(nc(/C=C/c3ccccc3Cl)n2C)n(CCC)c1=O [Compound 41, (E)-8-(2-chlorostyryl)-7-methyl-1,3-dipropylxanthine] | > 100 mg/kg
31 | CCCn1c(=O)c2c(nc(/C=C/c3ccc(OC)c(Br)c3)n2C)n(CCC)c1=O [Compound 56, (E)-8-(3-bromo-4-methoxystyryl)-7-methyl-1,3-dipropylxanthine] | > 100 mg/kg
32 | CCCn1c(=O)c2nc(/C=C/c3cc(OC)c(OC)cc3OC)[nH]c2n(CCC)c1=O [Compound 22, (E)-1,3-dipropyl-8-(2,4,5-trimethoxystyryl)-xanthine] | > 300 mg/kg
33 | CCCn1c(=O)c2[nH]c(/C=C/c3cc(OC)c(OC)cc3Br)nc2n(CCC)c1=O [Compound 57, (E)-8-(2-bromo-4,5-dimethoxystyryl)-1,3-dipropylxanthine] | > 300 mg/kg
34 | CCCn1c(=O)c2c(nc(/C=C/c3ccc(OCC)c(OCC)c3)n2C)n(CCC)c1=O [Compound 54, (E)-8-(3,4-diethoxystyryl)-7-methyl-1,3-dipropylxanthine] | > 100 mg/kg
35 | CCCn1c(=O)c2c(nc(/C=C/c3ccc(OC)c(O)c3)n2C)n(CCC)c1=O [Compound 63, (E)-8-(3-hydroxy-4-methoxystyryl)-7-methyl-1,3-dipropylxanthine] | > 100 mg/kg
36 | CCCn1c(=O)c2nc(/C=C/c3cccc(F)c3)[nH]c2n(CCC)c1=O [Compound 36, (E)-8-(3-fluorostyryl)-1,3-dipropylxanthine] | > 100 mg/kg
37 | CCCn1c(=O)c2[nH]c(/C=C/c3ccc(OC)c4ccccc34)nc2n(CCC)c1=O [Compound 61, (E)-8-[2-(4-methoxynaphthyl)vinyl]-1,3-dipropylxanthine] | > 100 mg/kg
38 | CCCn1c(=O)c2[nH]c(/C=C/c3ccccc3Cl)nc2n(CCC)c1=O [Compound 40, (E)-8-(2-chlorostyryl)-1,3-dipropylxanthine] | > 100 mg/kg
39 | CCCn1c(=O)c2[nH]c(/C=C/c3cccc(OC)c3OC)nc2n(CCC)c1=O [Compound 28, (E)-8-(2,3-dimethoxystyryl)-1,3-dipropylxanthine] | > 100 mg/kg
40 | CCCn1c(=O)c2c(nc(/C=C/c3cc(OC)c(OC)cc3Br)n2C)n(CCC)c1=O [Compound 58, (E)-8-(2-bromo-4,5-dimethoxystyryl)-7-methyl-1,3-dipropylxanthine] | > 300 mg/kg
41 | CCCn1c(=O)c2c(nc(/C=C/c3ccc(OC)c4ccccc34)n2C)n(CCC)c1=O [Compound 62, (E)-8-[2-(4-methoxynaphthyl)vinyl]-7-methyl-1,3-dipropylxanthine] | > 100 mg/kg
42 | CCCn1c(=O)c2nc(/C=C/c3cc(OC)cc(OC)c3)[nH]c2n(CCC)c1=O [Compound 32, (E)-8-(3,5-dimethoxystyryl)-1,3-dipropylxanthine] | > 100 mg/kg
